Results from ChEMBL document CHEMBL4433231 (Bioorg Med Chem Lett, 2019).

biological target: Vitamin K epoxide reductase complex subunit 1 (Homo sapiens, UniProt Q9BQB6); experiment: Inhibition of VKOR (unknown origin) in HEK293 expressing FIXgla-PC incubated for 48 hrs by ELISA; type: cell-based
Sequence (Q9BQB6 whole entry, one chain of several): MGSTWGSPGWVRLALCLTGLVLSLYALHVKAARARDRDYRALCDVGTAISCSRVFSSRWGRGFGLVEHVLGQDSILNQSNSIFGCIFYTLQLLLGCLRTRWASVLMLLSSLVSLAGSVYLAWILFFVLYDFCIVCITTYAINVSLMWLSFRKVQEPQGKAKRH

SMILES	IC50
C[C@]1(O)C[C@H](C2=C/C=C\C=C/C=C\2)[C@]2(COc3ccccc3C2=O)n2c(=O)n(-c3ccccc3)c(=O)n21	58.2 nM
CC(=O)CC(c1c(O)c2ccccc2oc1=O)C1CCCCC1 (racemic)	90.2 nM
CC(=O)CC(C1=C/C=C(C(=O)O)\C=C/C=C\1)c1c(O)c2ccccc2oc1=O (racemic)	1930 nM
CC(=O)CC(c1c(O)c2ccccc2oc1=O)C1CCCCCCC1 (racemic)	59 nM
CC1(O)CC(C2=C/C=C\C=C/C=C\2)c2c(c3ccccc3oc2=O)O1 (racemic)	4.5 nM
